Data taken from BindingDB's records for PubMed 39651809 (Pfizer Inc.).

Test: Inhibition of SLP76 phosphorylation at Ser376 in human Jurkat cells incubated for 30 mins by HTRF assay

| SMILES | IC50 [nM] |
| --- | --- |
| CC(C)n1cnnc1-c1cccc(NC(=O)c2cccc3c2OCC(N)C3)n1 (stereo not drawn) | 1080 |
| CC(C)n1cnnc1-c1cccc(NC(=O)c2cccc3c2nc(CN)n3C)n1 | 1070 |
| CCC(C)n1cnnc1-c1cccc(NC(=O)c2cccc3c2OCC(N)C3)n1 (stereo not drawn) | 222 |
| CC[C@H](C)n1cnnc1-c1cccc(NC(=O)c2cccc3c2nc(CN)n3C)n1 | 139 |
| CNCc1cc(OC)cc2c1CN(c1cccc(-c3nncn3C(C)C)n1)C2=O | 383 |
| CNCc1cc(OC)cc2c1CN(c1cccc(-c3nncn3[C@@H](C)CC(F)(F)F)n1)C2=O | 115 |
| COc1ccc2c(c1CN)CN(c1cccc(-c3nncn3[C@@H](C)CC(F)(F)F)n1)C2=O | 520 |

The remaining lines, values ahead:

| IC50 [nM] | SMILES |
| --- | --- |
| 112 | CNCc1nc(N(C)C)cc2c1CN(c1cccc(-c3nncn3C(C)C)n1)C2=O [US11142525, Example 1] |
| 70 | CNCc1nc(N(C)C)cc2c1CN(c1cccc(-c3nncn3[C@@H](C)CC(F)(F)F)n1)C2=O [US11142525, Example 17] |
| 121 | CCCn1cnnc1-c1cccc(N2Cc3c(cc(N(C)C)nc3CNC)C2=O)n1 [US11142525, Example 46] |
| 34 | CCCn1cnnc1-c1cccc(N2Cc3c(cc(N4CCC[C@H]4C)nc3CNC)C2=O)n1 [US11142525, Example 55] |
| 87 | CCCn1cnnc1-c1cccc(N2Cc3c(cc(N(C)C(C)C)nc3CNC)C2=O)n1 [US11142525, Example 63] |
| 81 | CCCn1c(C)nnc1-c1cccc(N2Cc3c(cc(N(C)C(C)C)nc3CNC)C2=O)n1 [US11142525, Example 64] |
| 53 | C[C@@H]1CCCN1c1cc2c(c([C@@H](C)N)n1)CN(c1cccc(-c3nnc4n3[C@@H](C)CC4)n1)C2=O [US11684616, Example 24] |
| 53 | CC[C@@H](N)c1nc(N2CCC[C@H]2C)cc2c1CN(c1cccc(-c3nncn3CC)n1)C2=O [US11684616, Example 140] |
| 37 | CC[C@H]1CCc2nnc(-c3cccc(N4Cc5c(cc(N(C)C(C)C)nc5CNC)C4=O)n3)n21 [US11684616, Example 201] |
| 52 | CNCc1nc(N(C)C(C)C)cc2c1CN(c1cccc(-c3nnc4n3[C@@H](CF)CC4)n1)C2=O [US11684616, Example 205] |
| 47 | CNCc1nc(N(C)C(C)C)cc2c1CN(c1cccc(-c3nnc4n3[C@@H](C)CC4)n1)C2=O [US11684616, Example 210] |
